Results published in PMC7933434, “Entropy-driven binding of gut bacterial β-glucuronidase inhibitors ameliorates irinotecan-induced toxicity” (Communications Biology, 2021).
Values joined by “and” are separate entries in the source; they are usually repeats but may differ in a detail not shown here. Equal values may be shown once. Read-outs that look alike come from different tables or passages of the source.

Key:
[1] = biological target: EcGUS (Escherichia coli, UniProt P05804); experiment: Isothermal titration calorimetry, EcGUS; format: binding; details: EcGUS
EcGUS, sequence (P05804 whole entry): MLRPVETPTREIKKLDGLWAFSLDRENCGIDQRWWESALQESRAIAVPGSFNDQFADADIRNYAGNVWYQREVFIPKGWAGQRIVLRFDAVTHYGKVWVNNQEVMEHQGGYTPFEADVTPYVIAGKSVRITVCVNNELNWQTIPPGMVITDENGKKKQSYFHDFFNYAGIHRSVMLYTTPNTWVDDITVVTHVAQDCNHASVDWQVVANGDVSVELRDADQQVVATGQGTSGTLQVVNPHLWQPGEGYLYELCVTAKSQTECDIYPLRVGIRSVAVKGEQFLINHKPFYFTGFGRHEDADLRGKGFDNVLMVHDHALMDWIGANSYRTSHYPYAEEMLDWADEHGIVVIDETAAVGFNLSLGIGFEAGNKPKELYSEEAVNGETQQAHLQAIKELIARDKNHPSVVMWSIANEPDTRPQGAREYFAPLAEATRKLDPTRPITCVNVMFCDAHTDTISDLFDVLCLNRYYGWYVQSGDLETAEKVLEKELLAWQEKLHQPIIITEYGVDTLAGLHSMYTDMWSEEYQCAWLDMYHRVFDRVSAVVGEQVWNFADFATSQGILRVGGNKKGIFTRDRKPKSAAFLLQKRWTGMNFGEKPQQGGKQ

[2] = biological target: BdGUS (Bifidobacterium dentium GUS) (Bifidobacterium dentium, UniProt D2Q7B1); experiment: biochemical; design: GUS activity (hydrolysis rate of MUG) / 1/v: unit not given here
BdGUS (Bifidobacterium dentium GUS), sequence (D2Q7B1 1-668): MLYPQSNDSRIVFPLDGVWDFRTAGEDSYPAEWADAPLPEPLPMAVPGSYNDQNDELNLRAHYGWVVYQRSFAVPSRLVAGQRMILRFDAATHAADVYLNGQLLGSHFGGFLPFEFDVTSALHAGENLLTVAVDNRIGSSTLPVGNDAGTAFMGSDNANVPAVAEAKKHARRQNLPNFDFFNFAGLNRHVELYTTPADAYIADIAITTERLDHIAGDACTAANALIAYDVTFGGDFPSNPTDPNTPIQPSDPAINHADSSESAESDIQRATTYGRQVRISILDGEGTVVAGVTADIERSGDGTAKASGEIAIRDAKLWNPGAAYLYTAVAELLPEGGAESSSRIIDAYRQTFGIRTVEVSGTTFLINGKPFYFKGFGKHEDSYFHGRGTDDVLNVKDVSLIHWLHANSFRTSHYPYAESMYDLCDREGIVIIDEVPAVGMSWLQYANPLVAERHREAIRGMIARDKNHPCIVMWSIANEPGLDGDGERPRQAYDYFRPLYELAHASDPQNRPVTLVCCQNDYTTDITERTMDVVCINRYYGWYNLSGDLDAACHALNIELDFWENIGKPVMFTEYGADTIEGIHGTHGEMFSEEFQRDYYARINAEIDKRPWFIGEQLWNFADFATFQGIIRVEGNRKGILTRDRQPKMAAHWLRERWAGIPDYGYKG

[3] = biological target: LgGUS (Lactobacillus gasseri GUS) (Lactobacillus gasseri, UniProt Q9AHJ8); experiment: GUS inhibition assay, hydrolysis of 4-methylumbelliferyl-β-glucuronide, LgGUS; format: biochemical; design: GUS activity (hydrolysis rate of MUG) / 1/v: unit not given here; details: for Ki: LgGUS
LgGUS (Lactobacillus gasseri GUS), sequence (Q9AHJ8 1-598): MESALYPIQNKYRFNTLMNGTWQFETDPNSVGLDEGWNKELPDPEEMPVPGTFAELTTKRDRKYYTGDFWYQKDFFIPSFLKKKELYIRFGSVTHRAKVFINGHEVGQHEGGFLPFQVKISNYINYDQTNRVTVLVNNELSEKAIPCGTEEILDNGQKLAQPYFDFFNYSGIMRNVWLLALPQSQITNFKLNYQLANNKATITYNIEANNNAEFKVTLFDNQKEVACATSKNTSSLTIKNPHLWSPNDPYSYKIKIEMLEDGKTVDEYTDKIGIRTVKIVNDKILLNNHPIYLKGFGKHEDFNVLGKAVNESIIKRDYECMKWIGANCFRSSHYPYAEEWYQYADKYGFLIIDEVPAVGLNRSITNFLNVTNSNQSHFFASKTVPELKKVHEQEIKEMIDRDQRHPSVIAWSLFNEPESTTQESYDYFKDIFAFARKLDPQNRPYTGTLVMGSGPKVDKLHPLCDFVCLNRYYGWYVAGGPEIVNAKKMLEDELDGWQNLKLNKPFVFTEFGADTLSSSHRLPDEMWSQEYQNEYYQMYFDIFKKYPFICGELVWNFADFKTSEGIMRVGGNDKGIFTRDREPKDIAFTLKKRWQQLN

[4] = biological target: EcGUS (Escherichia coli GUS) (Escherichia coli, UniProt P05804); experiment: biochemical
EcGUS (Escherichia coli GUS), sequence (P05804 whole entry): as the sequence (P05804 whole entry) above

[5] = biological target: T1, GUS activity in live E. coli cells (Escherichia coli, UniProt P05804); experiment: GUS activity in live E. coli cells; format: cell-based; details: E. coli cells (OD600 = 1.89) treated for 30 min, then GUS activity measured
T1 construct: endogenous in cells
T1 sequence (P05804 whole entry): as above
Method: To examine if inhibitors 2–4 could inhibit GUS activity in vivo, E. coli cells (OD600 = 1.89) were treated with each of 2–4 for 30 min, after which GUS activity was measured. […]; 3, 18.6 nM; and 4, 3.69 nM (Supplementary Fig. 9a). […]. […] Additionally, to evaluate cell viability, E. coli cultures were treated with ampicillin (positive control), DMSO, or inhibitors 2–4 (100 μM) for 6 h.
Supplementary Figure 9 Inhibitors 2–4 sho w in hi biti on ag ai n st G US acti vity in l i ve E. co li cell s. (a) GUS activity was measured in live E. coli. Af t e r E. coli were incubated with DMSO or an inhibitor ( 2–4), GUS activity was measured using 4-methylumbelliferyl-β-glucuronide as the substrate. The release of fluorescent 4-methylumbelliferone was detected at 445 nm (excitation, 345 nm). Compared with the negative c ont rol (DMSO ), […]
[…]. (b) Colony formation assay. None of the inhibitors affected bacterial growth. As a negative control, E. coli cells were incubated with ampicillin (100 μg/mL). Results are expressed as the mean of triplicate samples ± SEM.
(1 picture or pasted object on this page, not shown here)

[6] = phosphate buffer (250 mM NaCl, 20 mM KH2PO4, 100 mM Na2HPO4, pH 8.0), 298 K
[7] = [Inhibitor 4] = 0.05 μM, [MUG] 0.08 mM
[8] = [Inhibitor 4] = 0.05 μM, [MUG] 0.125 mM
[9] = [Inhibitor 4] = 0.05 μM, [MUG] 0.25 mM
[10] = [Inhibitor 4] = 0.05 μM, [MUG] 0.5 mM
[11] = [Inhibitor 4] = 0.15 μM, [MUG] 0.08 mM
[12] = [Inhibitor 4] = 0.15 μM, [MUG] 0.125 mM
[13] = [Inhibitor 4] = 0.15 μM, [MUG] 0.25 mM
[14] = [Inhibitor 4] = 0.15 μM, [MUG] 0.5 mM
[15] = [Inhibitor 4] = 0.3 μM, [MUG] 0.08 mM
[16] = [Inhibitor 4] = 0.3 μM, [MUG] 0.125 mM
[17] = [Inhibitor 4] = 0.3 μM, [MUG] 0.25 mM
[18] = [Inhibitor 4] = 0.3 μM, [MUG] 0.5 mM
[19] = [Inhibitor 4] = 0.6 μM, [MUG] 0.08 mM
[20] = [Inhibitor 4] = 0.6 μM, [MUG] 0.125 mM
[21] = [Inhibitor 4] = 0.6 μM, [MUG] 0.25 mM
[22] = [Inhibitor 4] = 0.6 μM, [MUG] 0.5 mM
[23] = [Inhibitor 4] = 0.1 μM, [MUG] 0.0375 mM
[24] = [Inhibitor 4] = 0.1 μM, [MUG] 0.05 mM
[25] = [Inhibitor 4] = 0.1 μM, [MUG] 0.075 mM
[26] = [Inhibitor 4] = 0.1 μM, [MUG] 0.15 mM
[27] = [Inhibitor 4] = 0.2 μM, [MUG] 0.0375 mM
[28] = [Inhibitor 4] = 0.2 μM, [MUG] 0.05 mM
[29] = [Inhibitor 4] = 0.2 μM, [MUG] 0.075 mM
[30] = [Inhibitor 4] = 0.2 μM, [MUG] 0.15 mM
[31] = [Inhibitor 4] = 0.4 μM, [MUG] 0.0375 mM
[32] = [Inhibitor 4] = 0.4 μM, [MUG] 0.05 mM
[33] = [Inhibitor 4] = 0.4 μM, [MUG] 0.075 mM
[34] = [Inhibitor 4] = 0.4 μM, [MUG] 0.15 mM
[35] = [Inhibitor 4] = 0.6 μM, [MUG] 0.0375 mM
[36] = [Inhibitor 4] = 0.6 μM, [MUG] 0.05 mM
[37] = [Inhibitor 4] = 0.6 μM, [MUG] 0.075 mM
[38] = [Inhibitor 4] = 0.6 μM, [MUG] 0.15 mM

CCCCCCCCC[C@@H]1NC[C@@H](O)[C@H](O)[C@H]1C(=O)O [Inhibitor 4, C6-nonyl UIFG]
ΔH ([1]; Tris buffer (250 mM NaCl, 20 mM Tris, pH 8.0), 298 K): close to zero
ΔΔH relative to 2 (ΔΔH2–3, ΔΔH2–4) ([1]; phosphate buffer): +0.99 kcal mol^−1
–TΔΔS relative to 2 (–TΔΔS2–3, –TΔΔS2–4) ([1]; phosphate buffer): -1.34 kcal/mol
Kd [1, 6]: 160 ± 40 nM
ΔG [1, 6]: –9.30 ± 0.13 kcal/mol
ΔH [1, 6]: –3.00 ± 0.02 kcal/mol
—TΔS [1, 6]: –6.31 ± 0.15 kcal/mol
Ki ([2]; BdGUS): 440 nM
1/v [2, 7]: 0.1206 and 0.1178 and 0.1199
GUS activity (hydrolysis rate of MUG) [2, 7]: 1.851 and 1.896 and 1.862
1/v [2, 8]: 0.09548 and 0.09298 and 0.09392
GUS activity (hydrolysis rate of MUG) [2, 8]: 2.339 and 2.4016 and 2.377
1/v [2, 9]: 0.06502 and 0.06335 and 0.06665
GUS activity (hydrolysis rate of MUG) [2, 9]: 3.434 and 3.525 and 3.35
1/v [2, 10]: 0.04786 and 0.04662 and 0.0491
GUS activity (hydrolysis rate of MUG) [2, 10]: 4.665 and 4.79 and 4.548
1/v [2, 11]: 0.1451 and 0.1465 and 0.1466
GUS activity (hydrolysis rate of MUG) [2, 11]: 1.539 and 1.524 and 1.523
1/v [2, 12]: 0.1144 and 0.1135 and 0.113
GUS activity (hydrolysis rate of MUG) [2, 12]: 1.951 and 1.968 and 1.976
1/v [2, 13]: 0.07405 and 0.07448 and 0.0755
GUS activity (hydrolysis rate of MUG) [2, 13]: 3.015 and 2.998 and 2.957
1/v [2, 14]: 0.05196 and 0.05207 and 0.05497
GUS activity (hydrolysis rate of MUG) [2, 14]: 4.298 and 4.288 and 4.062
1/v [2, 15]: 0.2039 and 0.1961 and 0.2029
GUS activity (hydrolysis rate of MUG) [2, 15]: 1.095 and 1.138 and 1.1007
1/v [2, 16]: 0.1529 and 0.1514 and 0.1472
GUS activity (hydrolysis rate of MUG) [2, 16]: 1.4607 and 1.475 and 1.517
1/v [2, 17]: 0.09524 and 0.09338 and 0.09505
GUS activity (hydrolysis rate of MUG) [2, 17]: 2.344 and 2.391 and 2.349
1/v [2, 18]: 0.06409 and 0.06318 and 0.06381
GUS activity (hydrolysis rate of MUG) [2, 18]: 3.484 and 3.534 and 3.499
1/v [2, 19]: 0.286 and 0.2822 and 0.2849
GUS activity (hydrolysis rate of MUG) [2, 19]: 0.7809 and 0.7911 and 0.7837
1/v [2, 20]: 0.2142 and 0.2187 and 0.2123
GUS activity (hydrolysis rate of MUG) [2, 20]: 1.043 and 1.021 and 1.052
1/v [2, 21]: 0.1255 and 0.1264 and 0.1244
GUS activity (hydrolysis rate of MUG) [2, 21]: 1.779 and 1.767 and 1.7944
1/v [2, 22]: 0.08292 and 0.0812 and 0.08265
GUS activity (hydrolysis rate of MUG) [2, 22]: 2.693 and 2.75 and 2.702
Ki [3]: 270 nM
Ki ([3]; 50 mM sodium acetate pH 4.5, 37 °C): 270 ± 74 nM
1/v [3, 23]: 0.07099 and 0.06547 and 0.07752
GUS activity (hydrolysis rate of MUG) [3, 23]: 17345 and 18805 and 15888
1/v [3, 24]: 0.08248 and 0.08036 and 0.08633
GUS activity (hydrolysis rate of MUG) [3, 24]: 14936 and 15328 and 14270
1/v [3, 25]: 0.1044 and 0.09961 and 0.1132
GUS activity (hydrolysis rate of MUG) [3, 25]: 11804 and 12374 and 10895
1/v [3, 26]: 0.1278 and 0.1207 and 0.1294
GUS activity (hydrolysis rate of MUG) [3, 26]: 9649 and 10216 and 9535
1/v [3, 27]: 0.05896 and 0.0562 and 0.06114
GUS activity (hydrolysis rate of MUG) [3, 27]: 20877 and 21902 and 20134
1/v [3, 28]: 0.07315 and 0.0639 and 0.07306
GUS activity (hydrolysis rate of MUG) [3, 28]: 16834 and 19266 and 16856
1/v [3, 29]: 0.08853 and 0.08384 and 0.0916
GUS activity (hydrolysis rate of MUG) [3, 29]: 13918 and 14693 and 13452
1/v [3, 30]: 0.113 and 0.1097 and 0.1193
GUS activity (hydrolysis rate of MUG) [3, 30]: 10909 and 11240 and 10335
1/v [3, 31]: 0.04482 and 0.03964 and 0.04854
GUS activity (hydrolysis rate of MUG) [3, 31]: 27452 and 31030 and 25348
1/v [3, 32]: 0.06247 and 0.0466 and 0.0623
GUS activity (hydrolysis rate of MUG) [3, 32]: 19707 and 26401 and 19760
1/v [3, 33]: 0.07433 and 0.06177 and 0.07489
GUS activity (hydrolysis rate of MUG) [3, 33]: 16569 and 19929 and 16445
1/v [3, 34]: 0.09796 and 0.08796 and 0.1041
GUS activity (hydrolysis rate of MUG) [3, 34]: 12581 and 14006 and 11837
1/v [3, 35]: 0.03481 and 0.03381 and 0.03972
GUS activity (hydrolysis rate of MUG) [3, 35]: 35328 and 36376 and 30969
1/v [3, 36]: 0.04379 and 0.03975 and 0.04826
GUS activity (hydrolysis rate of MUG) [3, 36]: 28094 and 30946 and 25494
1/v [3, 37]: 0.05918 and 0.05295 and 0.06497
GUS activity (hydrolysis rate of MUG) [3, 37]: 20799 and 23242 and 18949
1/v [3, 38]: 0.08688 and 0.08016 and 0.09205
GUS activity (hydrolysis rate of MUG) [3, 38]: 14180 and 15366 and 13387
Ki [4]: 4.5 nM
Ki ([4]; 50 mM HEPES pH 7.5, 37 °C): 4.5 ± 0.7 nM
IC50 [5]: 3.69 nM
